Results on two compounds are retold here after patent US20250059231A1, “Protease inhibitors” (priority 2021, published 2025).

In data set [1] the target is T1, ZIKA protease (Zika virus, UniProt Q32ZE1).
T1 construct: a trypsin-like serine protease domain in the N-terminal region of the flaviviral NS3 proteins
In words: biochemical. As to conditions: for inhibition at 1 µM / inhibition at 50 µM: read-out: inhibition of ZIKV.

In data set [2] the test system is TNF alpha. Put plainly: DENV2 infection in AG129 mice: plasma TNF alpha (ELISA). The class given is in vivo. As to conditions: 10 mg/kg I.P, b.i.d; n = 9; vs vehicle control. On the procedure:
(§1) Administration of compounds and vehicle to animals started twenty four hours before infection (Day −1). Animals were treated daily (From Day-1 to day 4) as per the experimental design shown below in table 3.1.5. Animals were monitored for general clinical signs, morbidity and mortality. Body weights were measured daily.
(§2) Cytokine levels (TNF alpha, IL-6 and IL-12) in plasma samples were measured using Enzyme-Linked Immunosorbent Assay (ELISA). Mouse TNF alpha ELISA Kit (Abcam: ab208348), Mouse IL-6 ELISA Kit (Abcam: ab100712), and Mouse IL-12 p40+IL-12 p70 ELISA Kit (Abcam: ab100699) were used to estimate TNF alpha, IL-6 and IL-12, respectively. The assays were performed according to the manufacturer's instructions and was analysed on a TECAN-NanoQuant Plate™ system.
(§3) The Mean±SD Log10PFU/ml, relative Mean±SD spleen weight, Mean±SD biomarker concentrations were estimated in each group. Significant differences between group means and control were analyzed by one-way ANOVA, followed by a Dunnett's multiple comparison test, using GraphPad Prism 5 at 95% confidence levels. A p value of <0.05 was considered as significant.

Data set [3] has as its system IL-12. Put plainly: DENV2 infection in AG129 mice: plasma IL-12 (ELISA). It counts as in vivo. The conditions noted are these: 10 mg/kg I.P, b.i.d; n = 9; vs vehicle control. On the procedure: as §1, §2, §3
On the technique in general: An ELISA detects its analyte on a solid surface through an enzyme-linked reagent.

Data set [4] in a line: Tissue distribution (biodistribution) in rats. It counts as in vivo. As to conditions: FIG. 5C after intravenous injection. From the text:
FIG. 5C-tissue distribution after intravenous injection in rats, measured by ratio concentration tissue over plasma.
Following administration, molecules reach the systemic circulation via either the blood capillaries or the lymphatic system.

Data set [5] is described as follows: Cytotoxicity (method not described). The class given is cell-based.
In data set [6] the test system is ZIKV.
Data set [7] addresses T2, WNV protease (West Nile virus, UniProt P06935).
T2 construct: a trypsin-like serine protease domain in the N-terminal region of the flaviviral NS3 proteins
In words: WNV protease assay (analogous procedure). The class given is biochemical. The conditions noted are these: read-out: IC50 for WNNV.

The target of data set [8] is T2, WNV protease. Put plainly: WNV protease assay (analogous procedure). As to conditions: at 50 μM. It counts as biochemical. In outline:
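Adapted from the DENV protease assay: inhibitors preincubated 15 min with protease (DENV at 100 nM) in 50 mM Tris-HCl pH 9.0, 10% ethylene glycol, 0.0016% Brij 58, then FRET substrate (50 μM final) added.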

Data set [9] concerns the target human Thrombin (Homo sapiens, UniProt P00734). In words: Selectivity screening, human serine protease thrombin. It counts as biochemical. The conditions noted are these: at 5 μM; read-out: inhibition of human Thrombin.
The target in data set [10] is human Trypsin (Homo sapiens, UniProt P07477). In words: Selectivity screening, human serine protease trypsin. It counts as biochemical. The conditions noted are these: read-out: inhibition of human Trypsin. An outline of the steps: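 Active candidates were counter-screened for selectivity against the human serine protease trypsin in a biochemical assay similar to the flavivirus protease assay. Cleavage of a substrate by protease activity raises fluorescence, which is read on a microtiter fluorescence plate reader. Compounds are diluted from 10 mM DMSO stocks and tested in triplicate, and inhibition of trypsin is reported.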

Where a SMILES comes first, the peptide text is derived from it. The star is where a group is joined. Palmitoyl = CCCCCCCCCCCCCCCC(=O)*

T1 sequence (Q32ZE1 1499-1676): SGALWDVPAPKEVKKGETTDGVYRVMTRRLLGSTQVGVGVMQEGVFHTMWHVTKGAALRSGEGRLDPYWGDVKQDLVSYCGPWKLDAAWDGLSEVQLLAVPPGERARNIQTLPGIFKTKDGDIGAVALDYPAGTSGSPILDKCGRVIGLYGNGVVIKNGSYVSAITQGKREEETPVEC
T1 sequence (Q32ZE1 1421-1460): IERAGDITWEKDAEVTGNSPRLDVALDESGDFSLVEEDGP
T2 sequence (P06935 1424-1463): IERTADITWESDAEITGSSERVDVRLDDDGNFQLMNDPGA
T2 sequence (P06935 1502-1679): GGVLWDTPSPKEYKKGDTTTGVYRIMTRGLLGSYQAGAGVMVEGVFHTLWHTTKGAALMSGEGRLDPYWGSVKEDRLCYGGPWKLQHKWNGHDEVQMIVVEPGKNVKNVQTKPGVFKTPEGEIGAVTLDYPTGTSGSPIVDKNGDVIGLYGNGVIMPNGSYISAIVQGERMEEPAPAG

As usually defined, the IC50 is the concentration at which inhibition is half-maximal. By inhibition is commonly meant the share of the control response that was lost under treatment. What is called EC50 is the concentration needed to bring the measured effect to its halfway point. `CCCCCCCCCCCCCCCC(=O)N[C@@H](CCCCN)CC(=O)N[C@@H](C)C(=O)N[C@@H](C)CC(=O)N[C@H](CCCCN)C(N)=O` (stereo in doubt) [compound 113]: in data set [1], the IC50 was not above 25 µM, the inhibition at 1 µM is not below 10% and the inhibition at 50 µM is not below 65%. Moreover, the “Plasma concentration of TNF-alpha in mouse plasma after treatment” value in [2] was 25.99 ± 9.19. In addition, the “Plasma concentration of IL-12 in mouse plasma after treatment” value in [3] amounted to 81.79 ± 14.30. The “tissue distribution, concentration in tissue (liver and spleen) versus plasma” value in data set [4] is listed as “could reach the main target sites of dengue”. In [5], the cytotoxicity entry is on record as “minimal cytotoxicity”. Also, in data set [6], the EC50 was not above 10 µM. Moreover, the half-maximal inhibitory concentration (IC50) in data set [7] is not above 40 µM.

In the case of `CCCCCCCCCCCCCCCC(=O)N[C@@H](CCCNC(=N)N)C(=O)N[C@@H](CCC(N)=O)C(=O)N[C@@H](Cc1ccccc1)C(N)=O` [compound 43] (Palmitoyl-Arg-Gln-Phe-NH2), the inhibition at 50 µM is not below 25% in [8] and not below 65% in data set [1]. Moreover, the IC50 is not above 25 µM in data set [1] and not above 40 µM in data set [7]. Further, in [1], the inhibition at 1 µM is not below 10%. The figures for the inhibition at 5 µM in data set [9] and in data set [10] (at 5 μM) were less than 5% and less than 10%, respectively. In addition, in [10] (at 25 μM), the inhibition at 25 µM is less than 20%. Moreover, the “Plasma concentration of TNF-alpha in mouse plasma after treatment” value in [2] worked out at 32.45 ± 12.30.
